From patent publication US20110082080A1, “COMPOSITIONS AND METHODS OF USING THE HUMAN PROISLET PEPTIDE RECEPTOR” (CUREDM GROUP HOLDINGS, LLC, priority 2007, published 2011)
Where no end group is shown, it is not given here.

Legend:
NOD mice = test: Pilot non obese diabetic (NOD) mouse study with lysophylline (LSF); assay type: in vivo; conditions: one NOD mouse per group; peptides given plus LSF; not statistically significant study; FIG. 11
Text: The non obese diabetic (NOD) model is used as a model for type 1 autoimmune diabetes. This form of diabetes is the most challenging in that the underlying damage to the pancreas and its insulin production is due to autoimmune attack. Therefore, in order to show definitive islet neogenesis in this form of diabetes an immune tolerance agent must be used in combination with HIP. The NOD mouse model is extremely difficult model because many of the mice may only transiently become diabetic and go into remission, whereas others develop severe diabetes. The timing intervention in this transgenic mouse model is difficult to determine.
In a preliminary study that utilizing the immune tolerance agent, lysophylline (LSF) under development, three NOD mice that became diabetic and were randomized to placebo plus LSF, HIP2 plus LSF and HIP2B plus LSF.

[1] = test system: streptozotcin-treated mice rendered diabetic; test: Repeated study in streptozotocin-treated diabetic mice with HIP2 and Optimized HIP2B; assay type: in vivo, mouse; conditions: for Total Islet Mass (μm2) / Total Islets: Table 3; for Total Islet Mass (% increase) / Total Islets (% increase): Table 3, vs placebo
Text: Differences between the two groups of HIP2B and placebo were statistically significant for both an increase in total islet mass (p=0.040) and total islet numbers (p=0.032), with the HIP2B group indicating larger values for both islet mass (M=416714.67, SD=121,389.01) and islet number (M=94, SD=32.74) than for the placebo group (islet mass: M=127410.67, SD=96930.78, islet number: M=31.67, SD=15.28).

HIP receptor/EXTL3 = target: T1, HIP receptor/EXTL3 (Homo sapiens, UniProt O43909); test: Cy3 immunofluorescence of HIP receptor/EXTL3 translocation in PANC-1 cells; assay type: cell-based; conditions: for HIP receptor/EXTL3 trafficking from cytoplasmic membrane to nucleus: trypsin and serum free medium, FIG. 12
T1 construct: It was observed that EXTL3 is expressed in PANC-1 cells; endogenous in cells; host or cells: PANC-1 (human pancreatic ductal/epithelioid cell line)
T1 sequence (O43909 1-919): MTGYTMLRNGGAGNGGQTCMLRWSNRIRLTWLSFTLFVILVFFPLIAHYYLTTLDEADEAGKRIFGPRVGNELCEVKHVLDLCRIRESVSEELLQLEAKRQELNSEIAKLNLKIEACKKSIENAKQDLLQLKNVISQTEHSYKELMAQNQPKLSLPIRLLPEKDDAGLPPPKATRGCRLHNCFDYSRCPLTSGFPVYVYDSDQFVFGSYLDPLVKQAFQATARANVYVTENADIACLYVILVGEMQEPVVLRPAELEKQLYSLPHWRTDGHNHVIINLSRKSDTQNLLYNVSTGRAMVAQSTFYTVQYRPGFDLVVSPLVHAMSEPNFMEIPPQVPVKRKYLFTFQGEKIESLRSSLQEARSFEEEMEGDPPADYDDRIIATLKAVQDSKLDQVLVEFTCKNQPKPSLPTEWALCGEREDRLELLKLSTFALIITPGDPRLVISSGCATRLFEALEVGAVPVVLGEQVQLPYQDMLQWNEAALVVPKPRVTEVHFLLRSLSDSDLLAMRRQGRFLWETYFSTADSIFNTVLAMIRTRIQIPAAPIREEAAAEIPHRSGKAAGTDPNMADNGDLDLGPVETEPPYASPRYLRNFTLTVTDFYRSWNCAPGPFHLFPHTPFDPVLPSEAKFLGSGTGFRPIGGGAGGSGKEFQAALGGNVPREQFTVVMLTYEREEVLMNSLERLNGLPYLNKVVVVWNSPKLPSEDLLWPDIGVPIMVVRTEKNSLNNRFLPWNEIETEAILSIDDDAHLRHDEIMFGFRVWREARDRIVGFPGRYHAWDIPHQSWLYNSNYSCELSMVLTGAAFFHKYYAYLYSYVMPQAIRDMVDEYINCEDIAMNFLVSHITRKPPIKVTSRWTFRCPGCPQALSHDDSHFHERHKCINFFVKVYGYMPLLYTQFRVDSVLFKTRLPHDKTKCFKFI
Protocol: Impact of HIP2B and HIP2 on HIP Receptor. To provide evidence that EXTL3 interacts with HIP, an experiment was conducted where human ductal cell line PANG-1 was used as a source of EXTL3. Using an antibody directed against EXTL3, PANC-1 cells were immunostained after being grown under conditions that differentiate these cells into islet-like cells. PANC-1 cells were grown in a standard growth medium containing 10% fetal bovine serum, or in a serum free medium (SFM) or SFM containing HIP.
The receptor for Human ProIslet Peptide was labeled using a double antibody method in a stable human pancreatic cell line. The first antibody was a rabbit polyclonal and the second was a goat-anti-rabbit labeled with Cy3 fluorescent dye.
These cells grow normally in serum free media and when treated with trypsin, are destabilized and made competent to undergo developmental changes. Cells were cultured in serum free media (SFM) with and without HIP, and in serum free media with trypsin (TSFM).
When treated with HIP under stable conditions, no changes result. When treated with HIP under developmentally competent conditions, the labeled receptor responds to the presence of HIP by being encapsulated by the cytoplasmic membrane and moving to the nuclear membrane where the signals for differentiation are received.
HIP stimulates the receptor membrane bound protein to be engulfed by the cytoplasmic membrane and transported to the nuclear membrane under adjusted exposure.

EXTL3 = target: T2, EXTL3 (Homo sapiens, UniProt O43909); test: Western blot of EXTL3 in cytosolic and nuclear fractions of PANC-1 cells; assay type: cell-based; conditions: PANC-1 cells in SFM; FIG. 14; without HIP nuclear EXTL3 observed at 6 hours
T2 construct: It was observed that EXTL3 is expressed in PANC-1 cells; endogenous in cells; host or cells: PANC-1 (human pancreatic ductal/epithelioid cell line)
T2 sequence (O43909 1-919): T1 sequence (O43909 1-919)
Protocol: Western blot and immunofluorescence analyses of EXTL3 localization were performed in human PANC-1 cells grown under conditions that differentiate these cells into islet-like cells. EXTL3 is predominantly located on the external surface of the cytoplasmic membrane and its structure includes a single transmembrane region located inside of the cytoplasmic membrane. PANC-1 cells were grown in a standard growth medium or in a serum free medium (SFM) containing HIP.

[2] = test system: ductal fraction of human pancreatic cells; test: HIP2B activity in human pancreatic ductal tissue culture (CK19, nuclei and insulin staining); assay type: cell-based; conditions: cultured 10 days in collagen matrix, treated every other day; FIG. 10
Protocol: The ductal fraction of human pancreatic cells were cultured for 10 days in a collagen matrix and then treated every other day with HIP2B. Cells were labeled by double antibody staining for CK 19, a marker for ductal tissue, and DAP1 staining to show nuclei and insulin.

PANC-1 cells = test: Impact of HIP and Optimized HIP peptides on PANC-1 cell morphology; assay type: cell-based, human; conditions: treated four days; for cell morphology changes through 7 days: pictures days 1, 2, 3, 5, 7 at 200×, FIG. 9B
Protocol: The cells were treated with HIP and Optimized HIP peptides for four days. […] FIG. 9B show the progression of the cell morphology changes through 7 days, with the control on the top, HIP2 in the middle, and HIP2B on the bottom. Pictures were taken on days 1, 2, 3, 5, and 7 at 200× magnification.

[3] = test system: mice rendered diabetic with streptozotocin; test: Streptozocin diabetic mouse study of HIP3, HIP1, HIP2 and hamster INGAP; assay type: in vivo; conditions: for total islet numbers vs placebo (significance): FIG. 6, p=0.022; for total islet mass vs placebo (significance): FIG. 6, p=0.05; for Total Islet Mass (μm2) / Total Islets: Table 2, initial study; for Total Islets: histology of pancreata; for Total Islet Mass (% increase) / Total Islets (% increase): Table 2, vs placebo; for islet area: placebo 142,394, p=0.05, FIG. 6
Protocol: In Vivo Studies. HIP3, HIP1, HIP2 and hamster INGAP have been the subject of in vivo studies in mice. […] The subject number was selected to yield a sufficient number of diabetic animals for the study and animals were randomly assigned to study groups. All animals were dosed via intraperitoneal injections twice daily (am and pm) for 28 consecutive days. The timing of dose administration remained consistent (±2 hours) during the dosing phase.
Mice were injected intraperitoneally with streptozocin at 40 mg/kg in citrate buffer, pH 4.5, on 5 consecutive days in an attempt to render them diabetic. […] If the blood glucose level in any animal rose to above 400 mg/dL, the animal was treated with insulin. Every 3 days, at the same time each day, a nick was made on the tail and a drop of blood was collected. Glucose measurements were determined using a glucose meter. Group assignments and dose levels were as follows in Table 1:
Study endpoints included the following: changes in glucose; changes in insulin requirements; and histology of post-mortem pancreata.

[4] = test system: human pancreatic ductal tissue; test: Insulin levels by radioimmunoassay in human pancreatic ductal fraction cultures; assay type: cell-based; conditions: human ductal tissue cultured with peptide; treated day 10 and 12, lysed after 1 week; vs negative control
Protocol: In Vitro Proof of Concept of HIP Activity. Human pancreatic islet and ductal fractions were cultured over 10 days and then treated in a blinded study. Radioimmunoassay methods were used to measure insulin levels in the human pancreatic cultures treated with a scrambled peptide serving as a negative control, HIP3, HIP1, HIP2 and hamster-derived INGAP serving as a positive control. Peptides were synthesized (95% pure, research grade).
Duplicate cultures were treated in both ductal and islet fractions of human pancreatic tissue on day 10 and day 12 and then lysed for detection of insulin content after 1 week of treatment HIP peptides, control and INGAP. During 10-day culture, the insulin production goes down and then after treatment with HIP peptides, insulin is produced again.
The ductal and islet tissue were separated using the Ricordi method. Neither ductal cell nor islet culture was completely homogeneous in nature. […] The studies were repeated with similar findings shown in the following chart, with as much as a four-fold increase in insulin levels by radioimmunoassay among human ductal tissue cultured with HIP2.
The ductal fraction graph as shown in FIG. 2 depicts the insulin levels on the y axis as measured by radioimmunoassay after incubation in culture with human pancreatic ductal tissue. […]

[5] = 250 μg intraperitoneal twice daily, 28 days

| Compound | glucose levels during the study (NOD mice) | Total Islet Mass (μm2) [1] | Total Islets [1] | Total Islet Mass (% increase) [1] | Total Islets (% increase) [1] | HIP receptor/EXTL3 trafficking from cytoplasmic membrane to nucleus (HIP receptor/EXTL3) | EXTL3 translocation by Western blot (EXTL3) | cell morphology changes through 7 days (PANC-1 cells) | lower mean glucose vs control [3, 5] | total islet numbers vs placebo (significance) [3] | total islet mass vs placebo (significance) [3] | Total Islet Mass (μm2) [3] | Total Islets [3] | Total Islet Mass (% increase) [3] | Total Islets (% increase) [3] | islet area [3] | other results |
| --- | --- | --- | --- | --- | --- | --- | --- | --- | --- | --- | --- | --- | --- | --- | --- | --- | --- |
| C[C@@H](O)CCCCn1c(=O)c2c(ncn2C)n(C)c1=O [LSF, lysophylline, reference compound] | gradual elevations in glucose | – | – | – | – | – | – | – | – | – | – | – | – | – | – | – | – |
| Ac-Ile-Gly-Leu-His-Asp-Pro-Thr-Gln-Gly-Thr-Glu-Pro-Asn-Gly-NH2 (Ac-IGLHDPTQGTEPNG-NH2) [HIP2B] | steadily improved glucose levels | 416,715 μm2 | 94 | 398% | 168% | stimulated traffic from the HIP receptor on the cytoplasmic membrane into the nucleus | enhancing EXTL3 translocation from the cytoplasmic membrane to the nucleus | deviate significantly from their initial appearance | – | – | – | – | – | – | – | – | rise in the total number of islets compared to placebo-treated mice ([1]; fold): three-fold; islet number (M) ([1]; mean, SD=32.74, placebo M=31.67, p=0.032): 94; islet mass (M) ([1]; mean, SD=121,389.01, placebo M=127410.67, p=0.040): 416714.67; islet size vs placebo-treated mice ([1]; not statistically significant (t=0.708, p=0.518)): normally sized islets were generated; interaction with receptor/EXTL3 and trafficking to nucleus, compared with HIP2 (HIP receptor/EXTL3): as effective as HIP2; insulin expression after treatment [2]: induced insulin expression in otherwise insulin negative cells; morphological differences vs control on day 7 (PANC-1 cells; 200×, FIG. 9A): histologically more differentiated cells |
| IGLHDPTQGTEPNG [HIP2] | steadily improved glucose levels | 202,955 μm2 | 65 | 143% | 86% | stimulated traffic from the HIP receptor on the cytoplasmic membrane into the nucleus | enhancing EXTL3 translocation from the cytoplasmic membrane to the nucleus | deviate significantly from their initial appearance | 29.4% | significantly increased total islet numbers | significantly greater total islet mass | 2161782 μm2 | 454 | 153% | 62% | 360,297 μm(2) | day by which mice were completely insulin-free ([3]; 250 μg intraperitoneal twice daily, 28 days, FIG. 4): ≤ 21 days; increase in insulin levels by radioimmunoassay [4]: four-fold |
| IGLHDPTQGTEPNGE [HIP3] | – | – | – | – | – | – | – | – | 57.3% | significantly increased total islet numbers | significantly greater total islet mass | 1703513 μm2 | 410 | 99% | 46% | 283,918 μm(2) | – |
| WIGLHDPTQGTEPNG [HIP1] | – | – | – | – | – | – | – | – | 14.7% | – | – | – | – | – | – | – | – |
